Test results as given in patent US9314468B2, “Chemokine receptor modulators” (Altiris Therapeutics, Inc., priority 2008, dated 2016).
Where a name gives a salt, the structure may show the parent alone.

Experiments:
Assay type in all cases: cell-based
[1] = Cytotoxicity assay, 6 days; conditions: human, CCRF-CEM cells
Method: Cytotoxicity of the compounds was assessed by the following assay. CCRF-CEM cells in media (RPMI 1640, 15% FBS, Pen/Strep., 1% non-essential amino acids) are incubated with various concentrations of test compound for 6 days undisturbed. Cell number relative to no compound controls is determined using either Serotec's “Alamar blue” per manufacturers protocol or Promega's “Cell Titer 96 Aqueous One Solution Cell Proliferation Assay” kit per manufacturers protocol. The number cells not surviving after test compound administration is determined for each concentration tested and the EC50 (concentration of compound in which 50% of the cells survive) is determined

[2] = target: T1, CXCR4 (Homo sapiens (Human), UniProt P61073); experiment: Functional calcium mobilization assay (SDF-1α induced); conditions: for IC50: read-out: Ca Flux IC50
T1 sequence (P61073 whole entry): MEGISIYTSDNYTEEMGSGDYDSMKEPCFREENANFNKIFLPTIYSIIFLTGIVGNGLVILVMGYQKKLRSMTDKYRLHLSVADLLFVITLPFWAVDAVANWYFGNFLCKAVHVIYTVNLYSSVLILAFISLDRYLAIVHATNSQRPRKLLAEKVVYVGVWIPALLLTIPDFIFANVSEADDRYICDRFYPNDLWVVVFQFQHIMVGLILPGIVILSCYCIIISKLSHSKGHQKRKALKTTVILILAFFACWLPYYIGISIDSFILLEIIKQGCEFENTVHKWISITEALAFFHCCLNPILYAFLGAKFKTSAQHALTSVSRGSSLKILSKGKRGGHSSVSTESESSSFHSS
Method: Functional modulation of CXCR4 was determined by calcium mobilization assay using leukemic lymphoid CEM cells, which naturally express high levels of CXCR4. Generally, the assay is carried out as follows: Cells are grown in vitro to confluency. On the day of the assay, cells are removed from the incubator, culture medium removed and replaced with a calcium sensitive dye (Calcium3 assay kit; Molecular Devices, Sunnyvale, Calif.). The cells are allowed to dye load for 45-60 min at 37° C. in the cell culture incubator and then allowed to equilibrate to room temperature for no more than 15 min before assay.
Compound plates were generated containing up to 3% dimethyl sulfoxide in media kept at room temperature. Test compounds were added to the cells at a 1:3 dilution, and calcium mobilization was measured using a Flex Station fluorescence imager (Molecular Devices). This first read was used to determine direct agonist activation of the CXCR4 receptor by the test compounds. […] Full dose response curves were generated daily for SDF-1a to calculate IC50 concentrations. The IC50 values are reported. In cases, where one was not determined, a percent inhibition at the 1 μM concentration was extrapolated.
Functional calcium mobilization assay was conducted as described in Example 27.

[3] = target: hERG potassium channel (Homo sapiens (Human), UniProt Q12809); experiment: hERG potassium channel current, automatic patch clamp; conditions: human, mammalian cells expressing hERG potassium channel
hERG potassium channel, sequence (Q12809 whole entry): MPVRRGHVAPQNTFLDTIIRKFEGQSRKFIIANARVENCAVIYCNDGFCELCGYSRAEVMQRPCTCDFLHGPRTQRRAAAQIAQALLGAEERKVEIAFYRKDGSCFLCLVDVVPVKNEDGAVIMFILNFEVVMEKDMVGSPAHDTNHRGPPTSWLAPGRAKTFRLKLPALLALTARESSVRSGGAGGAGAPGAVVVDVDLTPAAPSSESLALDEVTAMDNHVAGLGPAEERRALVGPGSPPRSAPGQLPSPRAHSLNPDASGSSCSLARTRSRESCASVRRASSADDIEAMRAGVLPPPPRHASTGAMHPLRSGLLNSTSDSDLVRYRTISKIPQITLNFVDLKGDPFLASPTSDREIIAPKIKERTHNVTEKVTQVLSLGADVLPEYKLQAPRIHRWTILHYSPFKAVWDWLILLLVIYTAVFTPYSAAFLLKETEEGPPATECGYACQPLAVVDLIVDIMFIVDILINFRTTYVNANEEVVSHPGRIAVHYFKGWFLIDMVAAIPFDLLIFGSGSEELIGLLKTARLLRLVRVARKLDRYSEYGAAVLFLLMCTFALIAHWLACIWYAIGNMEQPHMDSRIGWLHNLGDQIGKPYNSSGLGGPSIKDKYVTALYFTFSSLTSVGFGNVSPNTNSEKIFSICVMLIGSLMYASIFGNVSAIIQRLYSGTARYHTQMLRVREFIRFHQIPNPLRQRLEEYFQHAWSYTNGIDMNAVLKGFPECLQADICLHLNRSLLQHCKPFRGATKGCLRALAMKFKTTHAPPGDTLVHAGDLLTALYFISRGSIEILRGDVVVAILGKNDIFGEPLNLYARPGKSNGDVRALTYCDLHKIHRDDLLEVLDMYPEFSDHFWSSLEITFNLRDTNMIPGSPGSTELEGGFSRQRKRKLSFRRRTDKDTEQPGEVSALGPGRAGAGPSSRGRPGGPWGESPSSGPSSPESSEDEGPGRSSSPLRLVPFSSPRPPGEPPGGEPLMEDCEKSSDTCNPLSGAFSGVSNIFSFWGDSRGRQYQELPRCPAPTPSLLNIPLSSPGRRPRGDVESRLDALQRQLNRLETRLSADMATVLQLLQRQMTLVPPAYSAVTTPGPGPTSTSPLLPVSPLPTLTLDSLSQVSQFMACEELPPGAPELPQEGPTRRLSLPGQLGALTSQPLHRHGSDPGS
Method: (§1) The in vitro effects of the selected compounds on the hERG (human ether-á-go-go-related gene) potassium channel current (a surrogate for IKr, the rapidly activating, delayed rectifier cardiac potassium current) expressed in mammalian cells were evaluated at room temperature using the PatchXpress 7000A (Molecular Devices), an automatic parallel patch clamp system.

[4] = target: T1, CXCR4; experiment: Cellular impedance change induced by SDF-1a (cellular dielectric spectroscopy); conditions: HeLa cells, endogenous CXCR4, EC50 concentration of SDF-1a, 30 minutes; read-out: Antagonist IC50
Method: This assay measures the change in impedance that occurs when cells are stimulated with SDF-1a. Changes in shape and cytoskeleton result in a change of impedance that is dependent on the activation of the CXCR4 receptor. This assay is contracted to MDS Pharma Services and performed as described in http://discovery.mdsps.com/Catalog/Services/Screening/CellKey/AssayDetails.aspx?id=7 (Assay 930070). Briefly, human HeLa cells expressing endogenous CXCR4 are grown in vitro and receptor activation in live cells is measured using cellular dielectric spectroscopy (CDS).

[5] = test system: T-tropic HIV; experiment: Phenoscreen HIV entry inhibition assay; conditions: Human immunodeficiency virus 1, read-out: IC50 for viral entry inhibition
Method: A selected set of compounds are tested for their ability to inhibit the cellular entry of T-tropic HIV. The assay for this inhibition is carried out on a contractual basis at Monogram Biosciences, Inc. using their well established Phenoscreen™ assay. Briefly, HIV strains of interest are tagged with a luciferase indicator gene to create an appropriate test vector. The test vector is amplified through transfection and the resulting virus is incubated in the presence of target host cells where intracellular […] activity then becomes a measure of infection. Amplified virus is exposed to target host cells in the presence of a range of test drug concentrations to determine IC50 measurements of entry inhibition. A modification of this test is further reapplied as a novel drug assay used in partnership with a number of pharmaceutical companies to test the effectiveness of novel entry inhibitors that target specific chemokines. It can used to detect activity against T-tropic, M-tropic, and dual-tropic viruses and Monogram Biosciences has a large bank of over 10,000 different virus strains to ultimately asses the range of applicability of our chemokine modulators. Certain compounds are tested to establish efficacy in a number of viral strains.

[6] = target: hERG (human ether-á-go-go-related gene) potassium channel (Homo sapiens (Human), UniProt Q12809); experiment: hERG potassium channel current, automatic patch clamp; conditions: PatchXpress, 5 minutes exposure, room temperature
hERG (human ether-á-go-go-related gene) potassium channel, sequence (Q12809 whole entry): as above
Method: as §1

[7] = CEM cells, SDF-1α challenge at EC80-EC90

NCCCCN(Cc1nccc2c3ccccc3n(CCCN)c12)[C@H]1CCCc2cccnc21 [drawing 827]
EC50 at 6 days [1]: 6400 nM | IC50 ([2]; Table 9, selected compounds): 7 nM | inhibition at 5 min, 10 µM [3]: 46%

NCCCCN(Cc1nccc2c3ccccc3n(CCN3CCNCC3)c12)C1CCCc2cccnc21 (stereo not shown)
IC50 [4]: 5.7 nM

NCCCCN(Cc1cn(-c2ccccc2)nn1)C1CCCc2cccnc21 (stereo not shown) [Z, N-(4-aminobutyl)-N-((1-phenyl-1H-1,2,3-triazol-4-yl)methyl)-5,6,7,8-tetrahydro-quinolin-8-amine tetrahydrochloride]
IC50 [5]: ≤ 10000 nM

NCCCCN(Cc1nccc2c1[nH]c1ccccc12)C1CCCc2cccnc21 (stereo not shown) [A, N-((9H-pyrido[3,4-b]indol-1-yl)methyl)-N-(4-aminobutyl)-5,6,7,8-tetrahydroquinolin-8-amine tetrahydrochloride]
IC50 [5]: ≤ 10000 nM

NCCCCN(Cc1nccc2c3ccccc3n(CC(=O)N3CCC(O)CC3)c12)C1CCCc2cccnc21 (stereo not shown)
IC50 [4]: 12 nM

NCCCCN(Cc1nccc2c3ccccc3n(CC(=O)NC3CCNCC3)c12)C1CCCc2cccnc21 (stereo not shown) [drawing 821]
EC50 at 6 days [1]: 30000 nM | IC50 ([2]; Table 9, selected compounds): 126 nM | inhibition at 5 min, 10 µM [3]: 16%

CN(Cc1nnc(-c2ccccc2)n1C)C1CCCc2cccnc21 (stereo not shown) [BP, N-methyl-N-((4-methyl-5-phenyl-4H-1,2,4-triazol-3-yl)methyl)-5,6,7,8-tetrahydroquinolin-8-amine]
IC50 [5]: ≤ 10000 nM

C[C@@H]1CN(C(=O)Cn2c3ccccc3c3ccnc(CN(CCCCN)C4CCCc5cccnc54)c32)C[C@H](C)O1 (stereo partly shown)
IC50 [4]: 9.9 nM

NCCCCN(Cc1cccc2cc[nH]c12)C1CCCc2cccnc21 (stereo not shown) [B, N1-((1H-indol-7-yl)methyl)-N1-(5,6,7,8-tetrahydroquinolin-8-yl)butane-1,4-diamine]
IC50 [5]: ≤ 10000 nM

C[C@@H]1CN(C(=O)Cn2c3ccccc3c3ccnc(CN(CCCCN)[C@H]4CCCc5cccnc54)c32)C[C@H](C)O1 [drawing 826]
EC50 at 6 days [1]: 5300 nM | IC50 ([2]; Table 9, selected compounds): 123 nM | inhibition at 5 min, 1 µM [3]: 18%

C#CCn1c2ccccc2c2ccnc(CN(CCCCN)C3CCCc4cccnc43)c21 (stereo not shown)
IC50 [4]: 5.5 nM

c1cnc2c(c1)CCCC2N(CCCN1CCNCC1)Cc1nccc2c3ccccc3n(CCN3CCOCC3)c12 (stereo not shown) [drawing 811]
IC50 [4]: 9.3 nM

CC(C)(C)OC(=O)Cn1c2ccccc2c2ccnc(CN(CCCN3CCNCC3)[C@H]3CCCc4cccnc43)c21 [drawing 825]
EC50 at 6 days [1]: 600 nM | IC50 ([2]; Table 9, selected compounds): 37 nM | inhibition at 5 min, 1 µM [3]: 26%

NCCCCN(Cc1nccc2c3ccccc3n(CC(=O)NC3CCNCC3)c12)C1CCCc2cccnc21 (stereo not shown) [drawing 814]
IC50 [4]: 12 nM

O=C(Cn1c2ccccc2c2ccnc(CN(CCCN3CCNCC3)C3CCCc4cccnc43)c21)N1CCOCC1 (stereo not shown)
IC50 [4]: 15 nM

c1ccc(-n2cc(CN(CCCCNCc3ccccn3)C3CCCc4cccnc43)nn2)cc1 (stereo not shown) [AB, N1-((1-phenyl-1H-1,2,3-triazol-4-yl)methyl)-N4-(pyridin-2-ylmethyl)-N1-(5,6,7,8-tetrahydroquinolin-8-yl)butane-1,4-diamine hydrochloride]
IC50 [5]: ≤ 10000 nM

NCCCCN(Cc1nccc2c3ccccc3n(CC(=O)O)c12)[C@H]1CCCc2cccnc21 [drawing 820]
EC50 at 6 days [1]: 30000 nM | IC50 ([2]; Table 9, selected compounds): 22 nM | IC50 [6]: 2700 nM

NCCCCN(Cc1nccc2c3ccccc3n(CCCN3CCNCC3)c12)[C@H]1CCCc2cccnc21 [drawing 822]
EC50 at 6 days [1]: 30000 nM | IC50 ([2]; Table 9, selected compounds): 16 nM | IC50 [6]: 4100 nM

O=C(Cn1c2ccccc2c2ccnc(CN(CCCN3CCNCC3)[C@H]3CCCc4cccnc43)c21)C1CCOCC1
EC50 at 6 days [1]: 30000 nM | IC50 ([2]; Table 9, selected compounds): 44 nM | inhibition at 5 min, 10 µM [3]: 25%

CC(C)CN(CCC[C@H](NC1CCCc2cccnc21)C(=O)N[C@H](C)c1cccc2ccccc12)CC(C)C (stereo partly drawn) [AY, (S)-5-(diisobutylamino)-N-((R)-1-(naphthalen-1-yl)ethyl)-2-(5,6,7,8-tetrahydroquinolin-8-ylamino)pentanamide trihydrochloride]
IC50 [5]: ≤ 10000 nM

NCCCCN(Cc1nccc2c3ccccc3n(CC(=O)N3CCOCC3)c12)C1CCCc2cccnc21 (stereo not shown)
IC50 [4]: 5.6 nM

NCCCCN(Cc1nccc2c3ccccc3n(CCCN)c12)C1CCCc2cccnc21 (stereo not shown)
IC50 [4]: 7.3 nM

CN1CCN(C(=O)Cn2c3ccccc3c3ccnc(CN(CCCCN)C4CCCc5cccnc54)c32)CC1 (stereo not shown)
IC50 [4]: 11 nM

NCCCCN(Cc1nccc2c3ccccc3n(CC(N)=O)c12)C1CCCc2cccnc21 (stereo not shown)
IC50 [4]: 5.8 nM

NCCCCN(Cc1nccc2c3ccccc3n(CCN3CCNCC3)c12)[C@H]1CCCc2cccnc21 [drawing 829]
EC50 at 6 days [1]: > 10000 nM | IC50 ([2]; Table 9, selected compounds): 55 nM | inhibition at 5 min, 10 µM [3]: 45%

O=C(O)Cn1c2ccccc2c2ccnc(CN(CCCN3CCNCC3)[C@H]3CCCc4cccnc43)c21 [drawing 828]
EC50 at 6 days [1]: > 10000 nM | IC50 ([2]; Table 9, selected compounds): 113 nM | inhibition at 5 min, 10 µM [3]: 20%

O=C(O)Cn1c2ccccc2c2ccnc(CN(CCCN3CCNCC3)C3CCCc4cccnc43)c21 (stereo not shown)
IC50 [4]: 26 nM

NCCCCN(Cc1nccc2c3ccccc3n(CC(=O)N3CCOCC3)c12)[C@H]1CCCc2cccnc21 [drawing 819]
EC50 at 6 days [1]: 30000 nM | IC50 ([2]; Table 9, selected compounds): 12 nM | inhibition at 5 min, 10 µM [3]: 42%

NCCCCN(Cc1nccc2c3ccccc3n(CC(N)=O)c12)[C@H]1CCCc2cccnc21 [drawing 832]
IC50 ([2]; Table 9, selected compounds): 18 nM | IC50 [6]: 1800 nM

CN1CCN(C(=O)Cn2c3ccccc3c3ccnc(CN(CCCCN)[C@H]4CCCc5cccnc54)c32)CC1 [drawing 823]
EC50 at 6 days [1]: 50000 nM | IC50 ([2]; Table 9, selected compounds): 30 nM | inhibition at 5 min, 10 µM [3]: 39%

NCCCCN(Cc1nccc2c3ccccc3n(CCN3CCOCC3)c12)C1CCCc2cccnc21 (stereo not shown)
IC50 [4]: 7.7 nM

CCNCCCCN(Cc1nccc2c1[nH]c1ccccc12)[C@H]1CCCc2cccnc21
IC50 [2, 7]: 699 nM

NCCCN(Cc1nccc2c1[nH]c1ccccc12)C1CCCc2cccnc21 (stereo not shown)
inhibition at 1 µM ([2]; CCRF-CEM, read-out: % inhibition at 1 μM): 0%

CN(Cc1nccc2c3ccccc3n(CCCN3C(=O)c4ccccc4C3=O)c12)[C@H]1CCCc2cccnc21
IC50 [2, 7]: 217 nM

c1cnc2c(c1)CCCC2N(CCCN1CCNCC1)Cc1nccc2c3ccccc3n(CCN3CCOCC3)c12 (stereo not shown) [drawing 830]
IC50 ([2]; Table 9, selected compounds): 24 nM | IC50 [6]: 3100 nM

NCCCCN(Cc1nccc2c3ccccc3n(CC3CC3)c12)[C@H]1CCCc2cccnc21
IC50 [2, 7]: 4 nM

NCCCCN(Cc1nccc2c3ccccc3n(CCCN3CCNCC3)c12)C1CCCc2cccnc21 (stereo not shown)
IC50 [4]: 8.3 nM
